tested on: excised human nerve tissue; assay: Phage display selection on excised human nerve tissue (Nerve2, Nerve3), NextGen sequence counts; format: binding; settings: unique sequence count (relative enrichment); peptides common to Nerve2, Nerve3 and Plated Nerve 2 sets
Protocol: Several m13 phage libraries were constructed expressing randomized variants of a parent peptide (QVPWEEPYYVVKKS-SGGL; SEQ ID NO: 576). In particular, the first 14 amino acids of the parent peptide were randomized using degenerate oligonucleotide synthesis to obtain a diverse set of peptides with a mutation rate of about 50% per residue.
To accomplish this, synthesis was carried out by the XXK codon design approach, where X is any base and K is G or T. To bias synthesis towards the parent sequence, synthesis was carried out at each X position with a mixture of about 70%-85% of the parent nucleotide and 15-30% of the remaining 3 nucleotides. The resulting molecules were inserted into fADL-1e (Antibody Design Laboratories), which is a type 3 phage display vector having a cloning site on the N-terminal side of the full-length gene III protein. The fusion proteins are directed to the periplasm by the PelB leader peptide, which is inserted in the vector […].
Collectively, the phage display libraries used in the screens comprised about 600 million peptides, with sequencing analysis confirming a mutation rate of about 50% per residue.
Phage libraries were independently processed, as follows, with five biological samples: two independent samples of excised human nerve tissue, one sample of a human nerve extract, and two independent samples of human muscle tissue, as follows:
Excised Human Nerve Tissue: For each of the two independent samples, phage were processed through multiple cycles of selection, with representative phage being isolated and sequenced after each selection cycle. Specifically, for selection using human nerve tissue, a sample of […] tissue (2 mm by 2 mm) was washed prior to mixing and incubation with a phage library. After incubation, the mixture (containing mostly intact nerves with phage particles that had variable affinity for nerves) was centrifuged and the nerve pellet washed multiple times with PBS to remove phage with little or no affinity for nerve tissue. The pellet was homogenized and plated for titering and reamplification. Phage that were bound at each round were sequenced. NextGen sequencing of pools after 2, 3 and 4 rounds of selection were used to isolate candidate sequences that were further analyzed using bioinformatics.
NextGen sequencing of pools after 2, 3 and 4 rounds of selection were used to isolate candidate sequences from each of the five samples. These five data sets were then analyzed as described in the next section.
Peptide and vector sequences were translated starting at the first start codon in the nucleotide sequence. […] Trimmed peptides with identical sequences were combined and quantified according to their frequency (count).
Following processing, an R script was written to merge the unique peptide sequences (with counts 6 or greater) from the 5 different data sets to analyze the overlap between nerve and muscle binding activity.
For the single Nerve2, Nerve3, and Plated Nerve2 (pn2) subsets, the number of counts for each group was set at a threshold giving rise to at least 100 peptides. […] As highlighted in yellow in FIG. 1B, the representative group also included 6 unique peptides overlapping between nerve2 and nerve3, 200 unique peptides overlapping between nerve2 and plated nerve2 (at least 60 counts), 4 unique peptides overlapping between nerve3 and plated nerve2. Finally, as highlighted in green in FIG. 1B, the representative group also included […] common to the nerve2, nerve3, and plated nerve2 sets.

Substance | Count
1 (TIPYAEPYYVVRKY) [compound 1] | 711
2 (DFTMQEPYYAEKKT) [compound 2] | 593
3 (HVTWQEQYYVLKTP) [compound 3] | 371
4 (HVPGVDPYSVVKKF) [compound 4] | 368
5 (HVAFEQPDNVLVLY) [compound 5] | 357
6 (QVPTEVQFYLVKEP) [compound 6] | 337
7 (QLPSEQPCCVVKKY) [compound 7] | 329
8 (QDPWVTRYYIVKKS) [compound 8] | 304
9 (QVPAKEPYNFMKKS) [compound 9] | 299
10 (YLTWEEPEHVNKQS) [compound 10] | 272
11 (QVPRQELYYVSHQF) [compound 11] | 245
12 (QHPFEQSFYVVNKF) [compound 12] | 227
13 (DILLDELRFAEKHG) [compound 13] | 203
14 (YNLWDAPSYLVKNS) [compound 14] | 201
15 (HVAGGERYFSVKES) [compound 15] | 185
16 (HLPSDQPLSVTKIS) [compound 16] | 173
17 (GFLGEEPYHFLAKR) [compound 17] | 167
18 (LRSTADAHYTLKKS) [compound 18] | 152
19 (ATPCSQPCAVVPKF) [compound 19] | 142
20 (QYAWEEPYYLEKKL) [compound 20] | 140
21 (HLPVEYPFYVFKNS) [compound 21] | 131
22 (RGSLEGPFKLGKTH) [compound 22] | 130
23 (QVSSQEPNFIVKNN) [compound 23] | 116
24 (HFSAYEQYYVLRNS) [compound 24] | 111
25 (YVIKYAPYYAVTRS) [compound 25] | 93
26 (HLPEEELYTIVRKT) [compound 26] | 85
27 (QDPCVWPYNGVKKC) [compound 27] | 79
28 (HVHWDATYYAVTNS) [compound 28] | 77
29 (QFPYDHKNYVVKYS) [compound 29] | 69
30 (RFHMVGPYNVATTS) [compound 30] | 68

same assay, conditions: unique sequence count (relative enrichment); peptides overlapping between Nerve2 and Nerve3

Substance | Count
31 (HLPWEGQLNIGNKS) [compound 31] | 357
32 (DDLWQDLYGVVKKS) [compound 32] | 106
33 (NLAWAESKFLLEKI) [compound 33] | 71
34 (QLRYQEHYYLGYNS) [compound 34] | 56
35 (YVPWQEPYYVQKNL) [compound 35] | 49
36 (LVPWDETHKVVQRH) [compound 36] | 14

same assay, conditions: unique sequence count (relative enrichment); peptides overlapping between Nerve2 and Plated Nerve2

Substance | Count
41 (HSYREEPYYFGKRS) [compound 41] | 632
42 (QHTWKEPYNGQKRT) [compound 42] | 577
43 (QLPMGGPYERVNNT) [compound 43] | 380
44 (SVPKVHPYYVVNNS) [compound 44] | 333
45 (QVPTGEPLYPVQKT) [compound 45] | 323
46 (QLPSYQAHDVMKVH) [compound 46] | 308
47 (QIPSQRPSSVGAIA) [compound 47] | 292
48 (QFPGDERYYLATST) [compound 48] | 283
49 (HVSSQEPYYVLRNS) [compound 49] | 252
50 (RLPSDDHNTFGTRS) [compound 50] | 249
51 (QLHGDELLSVVKNP) [compound 51] | 232
52 (ATEWEESYFHVKKF) [compound 52] | 223
53 (RVPWEQSSWVVKRS) [compound 53] | 220
54 (QIANKEPHTYVENS) [compound 54] | 213
55 (QIRSEVTHSVVRES) [compound 55] | 213
56 (QHTLNHPYSVVKTS) [compound 56] | 205
57 (QVPSHELYFRPKES) [compound 57] | 204
58 (EVPGGVPYYPMKKF) [compound 58] | 201
59 (HVSGGQWVHGQKNS) [compound 59] | 200
60 (HVPSKQMNSLAKKS) [compound 60] | 196
61 (QIHFGEPNYVVKKS) [compound 61] | 194
62 (QFPWEGSYYTAKQS) [compound 62] | 193

Substance | Count
63 (QIPWGEAYQAEKIT) [compound 63] | 191
64 (VVPSNAQHLAPNMS) [compound 64] | 191
65 (HVAEAESYNVVKKT) [compound 65] | 187
66 (QIPCEGPYSGVQMC) [compound 66] | 186
67 (HITGGVPYPVVRDS) [compound 67] | 185
68 (HVLWEDSSYHVTHH) [compound 68] | 179
69 (HVTYDEQKYFVKKS) [compound 69] | 179
70 (QVPSVQPYYIGKNT) [compound 70] | 175
71 (QARFEQPYSGLRDS) [compound 71] | 167
72 (LIPSAYPHSLWSKS) [compound 72] | 166
73 (QLRSNEAYHVVKKS) [compound 73] | 166
74 (QTQMQEPKYGVSHS) [compound 74] | 163
75 (DVRWDEPYYVDEKI) [compound 75] | 161
76 (HVPRVEPYNVVTNY) [compound 76] | 158
77 (QFPGQALSFVHEKS) [compound 77] | 152
78 (HFPSKALNNTAKNT) [compound 78] | 151
79 (QFPPEQPYGLANKS) [compound 79] | 150
80 (HVPWAGRHYVAKHS) [compound 80] | 149
81 (RVAIDELYLIAHKS) [compound 81] | 147
82 (QIPEQQPYNVFKKS) [compound 82] | 142
83 (SIPGEDSLYAVTEH) [compound 83] | 142
84 (QCPSEQPNYVCKIF) [compound 84] | 140

Substance | Count
85 (HGQTQEPSYVTVYY) [compound 85] | 139
86 (HVHWQVPSNIVRNS) [compound 86] | 139
87 (QLPWYEADYRMEYY) [compound 87] | 139
88 (QLPSQAQNYYVTAS) [compound 88] | 137
89 (QVTSEEHYFAVKKF) [compound 89] | 136
90 (TSLSGAPFHNANTF) [compound 90] | 134
91 (HDASIALYDPVLMS) [compound 91] | 133
92 (QLPGDVTYNLGHKS) [compound 92] | 133
93 (QPTWEQPYHVDRNS) [compound 93] | 131
94 (HIPFPGLYSNLDQS) [compound 94] | 127
95 (DHPWDVRHYAHKKS) [compound 95] | 126
96 (DVPWKESFNIVENS) [compound 96] | 126
97 (QFARTAPYYVQTEY) [compound 97] | 125
98 (QNPWQKPYTVMKTS) [compound 98] | 123
99 (HLSFEEPLYGVKKS) [compound 99] | 122
100 (QFPSGHRVYTGKMT) [compound 100] | 122
101 (YNLYEQPYSVLKRS) [compound 101] | 122
102 (HLPSQVTHYVITSF) [compound 102] | 115
103 (QVPSHEPFYLGKKY) [compound 103] | 114
104 (RVTQGSPVYGENNA) [compound 104] | 114
105 (QIPMEETYSLRKMS) [compound 105] | 113
106 (QIPWEAPSYGATIS) [compound 106] | 113

same assay, conditions: unique sequence count (relative enrichment); peptides overlapping between Nerve3 and Plated Nerve 2

Substance | Count
37 (HVALEQPYYAVKES) [compound 37] | 342
38 (QVQCKEQYYGVTNC) [compound 38] | 195
39 (QALYAEPAYVSKKF) [compound 39] | 19
40 (HVSMDERYYVVKKT) [compound 40] | 17
